How the values were obtained:
[1] = tested on: MDA-MB-468; experiment: Cytotoxicity against human MDA-MB-468 cells assessed as cell growth at 10 uM after 48 hrs by SRB assay relative to control; assay type: functional; conditions: MDA-MB-468, 48 h, read-out: Activity
[2] = tested on: T47D; experiment: Cytotoxicity against human T47D cells assessed as cell growth at 10 uM after 48 hrs by SRB assay relative to control; assay type: functional; conditions: read-out: Activity
[3] = Cytotoxicity against human Hs 578T cells assessed as cell growth at 10 uM after 48 hrs by SRB assay relative to control; assay type: functional; conditions: read-out: Activity
[4] = tested on: MDA-MB-231; experiment: Cytotoxicity against human MDA-MB-231 cells assessed as cell growth at 10 uM after 48 hrs by SRB assay relative to control; assay type: functional; conditions: MDA-MB-231, 48 h, read-out: Activity
[5] = tested on: TK-10; experiment: Cytotoxicity against human TK10 cells assessed as cell growth at 10 uM after 48 hrs by SRB assay relative to control; assay type: functional; conditions: TK-10, 48 h, read-out: Activity
[6] = tested on: SN12C; experiment: Cytotoxicity against human SN12C cells assessed as cell growth at 10 uM after 48 hrs by SRB assay relative to control; assay type: functional; conditions: read-out: Activity
[7] = tested on: RXF 393; experiment: Cytotoxicity against human RXF393 cells assessed as cell growth at 10 uM after 48 hrs by SRB assay relative to control; assay type: functional; conditions: RXF 393, 48 h, read-out: Activity
[8] = tested on: CAKI-1; experiment: Cytotoxicity against human Caki1 cells assessed as cell growth at 10 uM after 48 hrs by SRB assay relative to control; assay type: functional; conditions: CAKI-1, 48 h, read-out: Activity
[9] = tested on: 786-0; experiment: Cytotoxicity against human 786-0 cells assessed as cell growth at 10 uM after 48 hrs by SRB assay relative to control; assay type: functional; conditions: 786-0, 48 h, read-out: Activity
[10] = tested on: A498; experiment: Cytotoxicity against human A498 cells assessed as cell growth at 10 uM after 48 hrs by SRB assay relative to control; assay type: functional; conditions: A498, 48 h, read-out: Activity
[11] = Cytotoxicity against human SKOV3 cells assessed as cell growth at 10 uM after 48 hrs by SRB assay relative to control; assay type: functional; conditions: SK-OV-3, 48 h, read-out: Activity
[12] = Cytotoxicity against human NCI-ADR-RES cells assessed as cell growth at 10 uM after 48 hrs by SRB assay relative to control; assay type: functional; conditions: read-out: Activity
[13] = Cytotoxicity against human OVCAR4 cells assessed as cell growth at 10 uM after 48 hrs by SRB assay relative to control; assay type: functional; conditions: OVCAR-4, 48 h, read-out: Activity
[14] = Cytotoxicity against human OVCAR3 cells assessed as cell growth at 10 uM after 48 hrs by SRB assay relative to control; assay type: functional; conditions: OVCAR-3, 48 h, read-out: Activity
[15] = Cytotoxicity against human UACC62 cells assessed as cell growth at 10 uM after 48 hrs by SRB assay relative to control; assay type: functional; conditions: UACC-62, 48 h, read-out: Activity
[16] = tested on: SK-MEL-5; experiment: Cytotoxicity against human SK-MEL-5 cells assessed as cell growth at 10 uM after 48 hrs by SRB assay relative to control; assay type: functional; conditions: SK-MEL-5, 48 h, read-out: Activity
[17] = tested on: SK-MEL-28; experiment: Cytotoxicity against human SK-MEL-28 cells assessed as cell growth at 10 uM after 48 hrs by SRB assay relative to control; assay type: functional; conditions: SK-MEL-28, 48 h, read-out: Activity
[18] = tested on: SK-MEL-2; experiment: Cytotoxicity against human SK-MEL-2 cells assessed as cell growth at 10 uM after 48 hrs by SRB assay relative to control; assay type: functional; conditions: SK-MEL-2, 48 h, read-out: Activity
[19] = tested on: MDA-MB-435; experiment: Cytotoxicity against human MDA-MB-435 cells assessed as cell growth at 10 uM after 48 hrs by SRB assay relative to control; assay type: functional; conditions: MDA-MB-435, 48 h, read-out: Activity
[20] = tested on: U-251; experiment: Cytotoxicity against human U251 cells assessed as cell growth at 10 uM after 48 hrs by SRB assay relative to control; assay type: functional; conditions: U-251, 48 h, read-out: Activity
[21] = tested on: LOX IMVI; experiment: Cytotoxicity against human LOXIMVI cells assessed as cell growth at 10 uM after 48 hrs by SRB assay relative to control; assay type: functional; conditions: read-out: Activity
[22] = tested on: SNB-75; experiment: Cytotoxicity against human SNB75 cells assessed as cell growth at 10 uM after 48 hrs by SRB assay relative to control; assay type: functional; conditions: SNB-75, 48 h, read-out: Activity
[23] = tested on: SNB-19; experiment: Cytotoxicity against human SNB19 cells assessed as cell growth at 10 uM after 48 hrs by SRB assay relative to control; assay type: functional; conditions: SNB-19, 48 h, read-out: Activity
[24] = tested on: SW-620; experiment: Cytotoxicity against human SW620 cells assessed as cell growth at 10 uM after 48 hrs by SRB assay relative to control; assay type: functional; conditions: SW-620, 48 h, read-out: Activity
[25] = Cytotoxicity against human HCT15 cells assessed as cell growth at 10 uM after 48 hrs by SRB assay relative to control; assay type: functional; conditions: HCT-15, 48 h, read-out: Activity
[26] = tested on: HCC 2998; experiment: Cytotoxicity against human HCC2998 cells assessed as cell growth at 10 uM after 48 hrs by SRB assay relative to control; assay type: functional; conditions: HCC 2998, 48 h, read-out: Activity
[27] = Cytotoxicity against human HCT116 cells assessed as cell growth at 10 uM after 48 hrs by SRB assay relative to control; assay type: functional; conditions: HCT-116, 48 h, read-out: Activity
[28] = tested on: COLO 205; experiment: Cytotoxicity against human COLO205 cells assessed as cell growth at 10 uM after 48 hrs by SRB assay relative to control; assay type: functional; conditions: COLO 205, 48 h, read-out: Activity
[29] = tested on: NCI-H322M; experiment: Cytotoxicity against human NCI-H322M cells assessed as cell growth at 10 uM after 48 hrs by SRB assay relative to control; assay type: functional; conditions: read-out: Activity
[30] = tested on: NCI-H460; experiment: Cytotoxicity against human NCI-H460 cells assessed as cell growth at 10 uM after 48 hrs by SRB assay relative to control; assay type: functional; conditions: NCI-H460, 48 h, read-out: Activity
[31] = tested on: NCI-H226; experiment: Cytotoxicity against human NCI-H226 cells assessed as cell growth at 10 uM after 48 hrs by SRB assay relative to control; assay type: functional; conditions: NCI-H226, 48 h, read-out: Activity
[32] = tested on: HOP-62; experiment: Cytotoxicity against human HOP62 cells assessed as cell growth at 10 uM after 48 hrs by SRB assay relative to control; assay type: functional; conditions: HOP-62, 48 h, read-out: Activity
[33] = tested on: K562; experiment: Cytotoxicity against human K562 cells assessed as cell growth at 10 uM after 48 hrs by SRB assay relative to control; assay type: functional; conditions: K562, 48 h, read-out: Activity
[34] = tested on: HL-60(TB); experiment: Cytotoxicity against human HL-60(TB) cells assessed as cell growth at 10 uM after 48 hrs by SRB assay relative to control; assay type: functional; conditions: HL-60, 48 h, read-out: Activity
[35] = tested on: MDA-MB-231; experiment: Growth inhibition of human MDA-MB-231 cells after 72 hrs by MTT assay; assay type: functional, cell-based; conditions: MDA-MB-231, 72 h

SMILES: CC(C)=CCC[C@H](C)c1ccc(C)c2c1OCN(CCCCC(=O)O)C2
- growth at 10 µM [1]: 87%
- growth at 10 µM [2]: 95.4%
- growth at 10 µM [3]: 104%
- growth at 10 µM [4]: 91.8%
- growth at 10 µM [5]: 86.1%
- growth at 10 µM [6]: 97.6%
- growth at 10 µM [7]: 102%
- growth at 10 µM [8]: 81%
- growth at 10 µM [9]: 82.6%
- growth at 10 µM [10]: 99.4%
- growth at 10 µM [11]: 104%
- growth at 10 µM [12]: 85.3%
- growth at 10 µM [13]: 105%
- growth at 10 µM [14]: 112%
- growth at 10 µM [15]: 79.7%
- growth at 10 µM [16]: 92%
- growth at 10 µM [17]: 115%
- growth at 10 µM [18]: 84%
- growth at 10 µM [19]: 99.4%
- growth at 10 µM [20]: 106%
- growth at 10 µM [21]: 90.2%
- growth at 10 µM [22]: 91.8%
- growth at 10 µM [23]: 92.7%
- growth at 10 µM [24]: 101%
- growth at 10 µM [25]: 92.3%
- growth at 10 µM [26]: 102%
- growth at 10 µM [27]: 88.6%
- growth at 10 µM [28]: 110%
- growth at 10 µM [29]: 112%
- growth at 10 µM [30]: 105%
- growth at 10 µM [31]: 95.7%
- growth at 10 µM [32]: 94.6%
- growth at 10 µM [33]: 87.5%
- growth at 10 µM [34]: 77.5%
- IC50 [35]: > 50 µM

SMILES: CC(C)=CCC[C@H](C)c1ccc(C)c(CNCCCCC(=O)O)c1O
- growth at 10 µM [1]: 100%
- growth at 10 µM [2]: 113%
- growth at 10 µM [3]: 102%
- growth at 10 µM [4]: 97.6%
- growth at 10 µM [5]: 105%
- growth at 10 µM [6]: 102%
- growth at 10 µM [7]: 121%
- growth at 10 µM [8]: 90.6%
- growth at 10 µM [9]: 100%
- growth at 10 µM [10]: 92.3%
- growth at 10 µM [11]: 105%
- growth at 10 µM [12]: 103%
- growth at 10 µM [13]: 93.3%
- growth at 10 µM [14]: 108%
- growth at 10 µM [15]: 92.3%
- growth at 10 µM [16]: 98.4%
- growth at 10 µM [17]: 109%
- growth at 10 µM [18]: 104%
- growth at 10 µM [19]: 96.1%
- growth at 10 µM [20]: 98.1%
- growth at 10 µM [21]: 95%
- growth at 10 µM [22]: 95.4%
- growth at 10 µM [23]: 103%
- growth at 10 µM [24]: 98.3%
- growth at 10 µM [25]: 105%
- growth at 10 µM [26]: 101%
- growth at 10 µM [27]: 101%
- growth at 10 µM [28]: 119%
- growth at 10 µM [29]: 111%
- growth at 10 µM [30]: 105%
- growth at 10 µM [31]: 91.1%
- growth at 10 µM [32]: 106%
- growth at 10 µM [33]: 96.1%
- growth at 10 µM [34]: 84.6%
- IC50 [35]: > 50 µM

SMILES: CC(C)=CCC[C@H](C)c1ccc(C)c(CNCC2CCNCC2)c1O
- growth at 10 µM [1]: 70%
- growth at 10 µM [2]: 88%
- growth at 10 µM [3]: 71%
- growth at 10 µM [4]: 69%
- growth at 10 µM [5]: 89.4%
- growth at 10 µM [6]: 78%
- growth at 10 µM [7]: 65%
- growth at 10 µM [8]: 71.8%
- growth at 10 µM [9]: 81.2%
- growth at 10 µM [10]: 65%
- growth at 10 µM [11]: 83%
- growth at 10 µM [12]: 84%
- growth at 10 µM [13]: 88%
- growth at 10 µM [14]: 83%
- growth at 10 µM [15]: 13.2%
- growth at 10 µM [16]: 73%
- growth at 10 µM [17]: 91%
- growth at 10 µM [18]: 102%
- growth at 10 µM [19]: 13.9%
- growth at 10 µM [20]: 57%
- growth at 10 µM [21]: 37.1%
- growth at 10 µM [22]: 71%
- growth at 10 µM [23]: 84%
- growth at 10 µM [24]: 86%
- growth at 10 µM [25]: 79%
- growth at 10 µM [26]: -3.94%
- growth at 10 µM [27]: 63%
- growth at 10 µM [28]: -59%
- growth at 10 µM [29]: 80%
- growth at 10 µM [30]: 54.7%
- growth at 10 µM [31]: 72%
- growth at 10 µM [32]: 84%
- growth at 10 µM [33]: 2.65%
- growth at 10 µM [34]: 99%
- IC50 [35]: 18.3 µM

From ChEMBL document CHEMBL3390836, “Mannich- and LedererManasse-based analogues of the natural product S-(+)-curcuphenol as cancer proliferation and migration inhibitors” (Medchemcomm, 2012)
